Assay results as given in patent publication EP2043663B1, “TOPICAL TREATMENT OF WARTS” (ITH Immune Therapy Holdings AB, priority 2006, dated 2008).

Tests used:
epithelial cells = experiment: Epithelial cytotoxicity cell assay; format: cell-based; conditions: AIM V medium
common wart = experiment: Treatment of warts II: gelled aqueous dithionite solution applied to a wart; format: in vivo, person; conditions: several drops of freshly prepared aqueous solution containing 2.0 % by weight of hydroxypropylmethyl cellulose; back of hand; rinsed after half an hour; wart wetted three hours from application; wooden spatula
Source text: Treatment of warts II. Several drops of freshly prepared aqueous solution of sodium dithionite containing 2.0 % by weight of hydroxypropylmethyl cellulose are applied to a common wart on the back of a persons hand. After half an hour the hand is rinsed with water. Three hours from application the wart is wetted.

In the case of O=S([O-])S(=O)[O-].[Na+].[Na+] [sodium dithionite], the “effect on the cells (cytotoxicity)” value (epithelial cells; highest concentration) is reported as “substantial cell death”, the “effect on the cells (cytotoxicity)” value (epithelial cells; lowest concentration, 0.001 g/mL) is reported as “did not affect the cells” and the “removability of the wart” value (common wart) is reported as “easily removed”.
